Assay results taken from the OligoGym collection.
After the bases stand the sugars from the 5' end (letter, count) and the backbone: PS all phosphorothioate, else s phosphorothioate and o phosphodiester by linkage. Methylation of C is not given here. l = locked nucleic acid (LNA); d = 2'-deoxy (DNA)

Target: SNHG14
Settings: ASO
[1] = Mouse Primary Neuronal Cell, 0.005 µM

| Sequence | target mRNA inhibition (Human Neuronal Cell, 7.5 µM) | target mRNA inhibition (Human Neuronal Cell, 0.2 µM) | target mRNA inhibition (Human Neuronal Cell, 1 µM) | also measured |
| --- | --- | --- | --- | --- |
| TTCTGTATACACCATCCC (sugars l1 d15 l2, PS) | 58% | – | – | – |
| TACTCTGCAATACACCA (sugars l2 d11 l4, PS) | – | 57% | 71% | – |
| AGCAACATTATTAACCACC (sugars l2 d1 l2 d12 l2, PS) | 63% | – | – | – |
| TACTCTGCAATACACC (sugars l1 d2 l2 d9 l2, PS) | 65% | – | – | – |
| TATTCTCAATTGCACTT (sugars l4 d11 l2, PS) | – | 46% | 61% | – |
| ATAAGCTTACCTCATA (sugars l2 d10 l4, PS) | – | 62% | 68% | – |
| TCTTTCCATTTATTTCCAT (sugars l2 d13 l1 d1 l2, PS) | 42% | – | – | – |
| TATCTCATGACCACCTA (sugars l2 d12 l3, PS) | – | 43% | 52% | – |
| TACATCTCATACTTGCT (sugars l2 d13 l2, PS) | – | 9% | 23% | target mRNA inhibition (Human Neuronal Cell, 5 µM): -10%; target mRNA inhibition [1]: 84.5% |
| TATTTGTCACCAAACC (sugars l3 d10 l3, PS) | – | 23% | -2% | – |
| ATCTTTCCATTTATTTCCAT (sugars lddlddddddddddddldll, PS) | 40% | – | – | – |
| CGAATCTTGACATACAGG (sugars l3 d12 l3, PS) | – | 8% | 19% | target mRNA inhibition (Human Neuronal Cell, 5 µM): 14% |
| TTAGTATACCCTTTAT (sugars l3 d10 l3, PS) | – | 28% | 20% | – |
| CTACATCTCATACTTGC (sugars l3 d11 l3, PS) | – | -4% | -27% | target mRNA inhibition (Human Neuronal Cell, 5 µM): 1%; target mRNA inhibition [1]: 94.6% |
| TGTTTATACCCTTTCCAA (sugars l2 d2 l1 d11 l2, PS) | 64% | – | – | – |
| ATTGATTCAATTCCCTT (sugars ldddldddddddlldll, PS) | 57% | – | – | – |
| TGTTTCCATCTACTATTA (sugars ldldddddddddddldll, PS) | 61% | – | – | – |
| TTATAGCCATTCTATCT (sugars lddllddddddldddll, PS) | 50% | – | – | – |
| CTCTTTAGATTCATCC (sugars l4 d10 l2, PS) | – | 56% | 48% | – |
| ACCACTGATTTCCTTA (sugars l2 d10 l4, PS) | – | 50% | 63% | – |
| CTCATTTACATTATTATT (sugars l4 d12 l2, PS) | – | 34% | 44% | – |

| Sequence | target mRNA inhibition (Human Neuronal Cell, 7.5 µM) | target mRNA inhibition (Human Neuronal Cell, 0.2 µM) | target mRNA inhibition (Human Neuronal Cell, 1 µM) | also measured |
| --- | --- | --- | --- | --- |
| CTTTCCATTTATTTCCAT (sugars l3 d12 l3, PS) | – | 43% | 51% | – |
| AAATTATTTATACACCATCA (sugars ldddlldddddddldldlll, PS) | 67% | – | – | – |
| GATCATTCTCAACAATTA (sugars l2 d1 l2 d8 l5, PS) | 26% | – | – | – |
| TATTGATTCAATTCCCT (sugars l1 d10 l1 d2 l3, PS) | 65% | – | – | – |
| TCATCCCTCCAAGAAA (sugars l2 d12 l2, PS) | – | -16% | -28% | target mRNA inhibition (Human Neuronal Cell, 5 µM): -48% |
| ATTTTTTTCTTACTATCTTC (sugars ldlllddddddddlddddll, PS) | 56% | – | – | – |
| TTGATTCAATTCCCTTA (sugars lldlddddddddlddll, PS) | 63% | – | – | – |
| TTCAACCCTAATCACT (sugars l4 d10 l2, PS) | – | 39% | 50% | – |
| AAATCTCAACTACCATTTTT (sugars lldlldldddddddldddll, PS) | 53% | – | – | – |
| ATTGATTCAATTCCCTT (sugars lddlldddddddlldll, PS) | 59% | – | – | – |
| TTTATCAATATCTTCTCACT (sugars lddldldddddddddddlll, PS) | 57% | – | – | – |
| TTATAGCCATTCTATCT (sugars l3 d1 l1 d10 l2, PS) | 65% | – | – | – |
| TCCTATGTTAATACTT (sugars l3 d10 l3, PS) | – | 14% | 34% | – |
| ATTTAAATTTCCAAACATT (sugars l2 d13 l4, PS) | – | 11% | -17% | – |
| TATACCTTTCTTTAACCCTT (sugars lddldlddddddddddldll, PS) | 62% | – | – | – |
| GCACATTCTTTCTATACC (sugars ldldlldddddddldlll, PS) | 51% | – | – | – |
| ACACATTATATTTAAACTA (sugars l3 d13 l3, PS) | – | 8% | -2% | – |
| TCTTTAAGCTTCCCAC (sugars l2 d10 l4, PS) | – | 34% | 44% | – |
| TACATCTCATACTTGC (sugars l3 d10 l3, PS) | – | 4% | -2% | target mRNA inhibition (Human Neuronal Cell, 5 µM): 12%; target mRNA inhibition [1]: 97.4% |
| TACATTGACACCTAAT (sugars l4 d10 l2, PS) | – | 19% | 17% | – |
| TATTGATTCAATTCCCT (sugars l3 d9 l2 d1 l2, PS) | 65% | – | – | – |

| Sequence | target mRNA inhibition (Human Neuronal Cell, 7.5 µM) | target mRNA inhibition (Human Neuronal Cell, 0.2 µM) | target mRNA inhibition (Human Neuronal Cell, 1 µM) | also measured |
| --- | --- | --- | --- | --- |
| AGCAACATTATTAACCACC (sugars lddddlddddddlldddll, PS) | 45% | – | – | – |
| CTGTATACACCATCCCA (sugars ldldlddddddddddll, PS) | 61% | – | – | – |
| AAGAAACACCCTTCCA (sugars l2 d10 l4, PS) | – | 40% | 54% | – |
| CTCCATATTTAAATCC (sugars l4 d10 l2, PS) | – | 8% | 21% | – |
| GCTCCCAAACAACTAA (sugars l2 d12 l2, PS) | – | 36% | 72% | – |
| TCTTTCCATTTATTTCCATT (sugars l2 d3 l1 d12 l2, PS) | 47% | – | – | – |
| CTTTCCATTTATTTCCATTT (sugars ldldddldddddddddldll, PS) | 54% | – | – | – |
| GCATTAGGCACATTACAT (sugars l3 d12 l3, PS) | – | -8% | 2% | target mRNA inhibition (Human Neuronal Cell, 5 µM): 15% |
| ATCATTCTCAACAATTAA (sugars l4 d8 l6, PS) | 44% | – | – | – |
| ATCATTCTCAACAATTAAA (sugars l4 d1 l1 d8 l5, PS) | 49% | – | – | – |
| CTTTCCATTTATTTCCATT (sugars llddldddddddddlddll, PS) | 61% | – | – | – |
| TGTTTATACCCTTTCCAA (sugars l1 d1 l2 d12 l2, PS) | 63% | – | – | – |
| TTCTGTATACACCATCC (sugars lddlddddddddlddll, PS) | 60% | – | – | – |
| TCCAACATAGATCCTC (sugars l2 d10 l4, PS) | – | 52% | 65% | – |
| TCCATTTATTTCCATTTAT (sugars ldlldddddddddldddll, PS) | 50% | – | – | – |
| CTCAAAGATCATTCTCA (sugars ldldldddddddlldll, PS) | 65% | – | – | – |
| TTTTTTCTTACTATCTTCAA (sugars ldddddldddddddllddll, PS) | 43% | – | – | – |
| CCTACATCTCATACTT (sugars l3 d10 l3, PS) | – | -11% | 3% | target mRNA inhibition (Human Neuronal Cell, 5 µM): 13%; target mRNA inhibition [1]: 93.4% |
| TTATAGCCATTCTATCT (sugars l2 d1 l2 d10 l2, PS) | 64% | – | – | – |
| AAAATCTCAACTACCATTTT (sugars l1 d12 l4 d1 l2, PS) | 42% | – | – | – |
